Test results as given in patent US20050025705A1, “Thrombosis animal models and their use in drug discovery and development” (priority 2003, published 2005).
Several values for one entry are separate records, joined by “and”; a condition that tells them apart may be missing. Equal entries are not always repeated.

Experiments:
[1] = system: tail bleeding time in C57BL/6 mice; assay: Mouse tail bleeding time
Procedure: Mice were anesthetized as described above and placed on a 37° C. heating pad. About 2-4 mm from the tip of mouse tail (in about 1 mm diameter) was cut with a disposable surgical blade. After transection, the tail was immediately placed into a 50-ml falcon tube filled with 37° C. saline and the bleeding time was recorded up to 30 min. Bleeding time over 30 min was considered as bleeding off scale.
Both thrombosis and bleeding studies were conducted within 2-4 hr after the second day of oral dosing.

[2] = system: 5% FeCl3-induced arterial thrombosis in C57BL/6 mice
Procedure: Adult mice (18-25 g, both male and female) were used for thrombosis study. Following anesthesia by pentobarbital (50 mg/kg, i.p.), an incision of the skin was made directly on top of the right common carotid artery region. The fascia was then blunt dissected and a segment of the […] common carotid artery was exposed. A Transonic flow probe (0.5 VB) was placed on the artery with gel to obtain the baseline flow readings (as time 0) via a Transonic […] Doppler flowmeter. Two pieces of filter paper (1×11⁄2 mm) pre-soaked with 5% FeCl3 solution were placed beneath and above the carotid artery for 3 min to induce thrombosis. The filter papers were removed and rinsed with saline. The blood flow was recorded every 5, 10, 20 and 30 min of FeCl3 treatment. […] Clopidogrel was administrated for two days. […] Data are illustrated as mean±standard errors using indicated number (N) of animals. Statistical comparisons were made by analysis of variance (ANOVA; Fisher's protected least squares difference) and values were considered to be significant at p<0.05.

[3] = system: FeCl3-induced arterial thrombosis in C57BL/6 mice; assay: FeCl3-induced carotid artery thrombosis in mice, Doppler blood flow (Example 2); format: in vivo; conditions: for efficacy in blocking thrombus formation: relatively high FeCl3 concentrations, unless an extremely high drug concentration was used
Procedure: Mice were anesthetized with gas inhalation comprised of 30% oxygen (0.3 liter/min; Airgas East, Inc., Salem, N.H.) and 70% nitrous oxide (0.7 liter/min; Airgas East, Inc., Salem, N.H.). […] Louis, Mo.) to the adventitial surface of the carotid artery immediately proximal to the flow probe for 3 min and then removed. The carotid blood flow was monitored at 1, 5, 10, 20, 30 min or some times up to 60 min. Heparin was purchased from American Pharmaceutical Partners, Inc. (Los Angeles, Calif.); mice were infused with 10, 50, 200 and 1000 IU/kg, i.v. immediately prior to 2.5 or 5% FeCl3 treatment on the carotid artery. […] Aspirin (acetylsalicylic acid) and MRS2179 were purchased from Sigma. […] Data in text and figures are mean±standard errors for the indicated number (N) of animals.

[4] = cited from earlier work

In the case of COC(=O)[C@H](c1ccccc1Cl)N1CCc2sccc2C1 [clopidogrel], the “prolongation in bleeding time” value ([1]; 1 mg/kg p.o.) is reported as “no prolongation”, the “animals bleeding off scale (over 30 min)” value ([1]; 10 mg/kg p.o.) is reported as 75% and the “increase in bleeding time” value ([1]; 10 mg/kg p.o., p<0.01, n=8) is reported as 11 fold and 10.9 fold. For the same compound, the “animals bleeding off scale (over 30 min)” value ([1]; 30 mg/kg (data not shown)) was 100%, the protection from thrombosis ([2]; 10 mg/kg) was “failed to protect” and the “animals that retained vascular patency” value ([2]; 100 mg/kg p.o.) was 6 out of 9. The “AUC of the relative Doppler blood flow, over controls” value ([2]; 100 mg/kg p.o., p<0.01) was 3.7 fold, the antithrombotic effect ([2]; clinically relevant dose 1 mg/kg p.o.) was “No antithrombotic effect” and the “dose needed for antithrombotic effect” value ([2]; p.o.) was over 30 mg/kg. The vascular patency ([3]; 2.5% FeCl3-induced thrombosis, 1 mg/kg p.o.) was “maintained in some”, the “vascular patency (animals in which maintained)” value ([3]; 2.5% FeCl3-induced thrombosis, 3 mg/kg p.o.) was “all” and the “dose required to show efficacy” value ([3]; 5% FeCl3-induced thrombosis, p.o.) was 100 mg/kg. For the same compound, the “efficacy in blocking thrombus formation” value [3] was “failed to show efficacy”.
In the case of CSCCNc1nc(SCCC(F)(F)F)nc2c1ncn2[C@@H]1O[C@H](COP(=O)(O)OP(=O)(O)C(Cl)(Cl)P(=O)(O)O)[C@@H](O)[C@H]1O [cangrelor], the “efficacy in 2.5% versus 5% FeCl3-induced thrombosis” value ([3]; 2.5% and 5% FeCl3) is reported as “differential efficacy” and the “efficacy in blocking thrombus formation” value [3] is reported as “failed to show efficacy”.
For heparin, the clotting activity ([4]; at concentrations greater than 4 ug/ml) is given as “not detectable”, the “activated partial thromboplastin time (aPTT) assay times” value ([4]; at therapeutic range 1 to less than 3 ug/ml plasma) is given as 35 to 100 s and the vascular patency ([3]; 2.5% FeCl3-induced thrombosis, 200 IU/kg i.v.) is given as “maintained”. The “dose required to inhibit thrombosis” value ([3]; 5% FeCl3-induced thrombosis, i.v.) was 1000 IU/kg and the “efficacy in blocking thrombus formation” value [3] was “failed to show efficacy”.
For CC(=O)Oc1ccccc1C(=O)O [aspirin, acetylsalicylic acid], the “effect in blocking thrombosis” value ([3]; 2.5% FeCl3-induced thrombosis, aspirin 10 and 30 mg/kg i.p.) was “Very little effect” and the “efficacy in blocking thrombus formation” value [3] was “failed to show efficacy”.
With CNc1ncnc2c1ncn2[C@H]1C[C@H](OP(=O)(O)O)[C@@H](COP(=O)(O)O)O1 [MRS2179] the effective dose ([3]; 2.5% FeCl3-induced thrombosis, i.v.) was 150 mg/kg, the “potency in blocking FeCl3-induced thrombosis” value ([3]; 2.5% FeCl3, compared with P2Y12 antagonists) was “less potent” and the “efficacy in blocking thrombus formation” value [3] was “failed to show efficacy”.
